Results on one compound are retold here after PMC10176470, “Engaging a Non-catalytic Cysteine Residue Drives Potent and Selective Inhibition of Caspase-6” (Journal of the American Chemical Society, 2023).

Holding throughout (type): cell-based
Assay [1] addresses proteins of HEK293T cells transiently overexpressing caspase-6 (Homo sapiens, UniProt P05023). The following applies: exp_ref Probe; protein ATP1A1 (P05023); analysis C6.
Assay [2] deals with T1, proteins of HEK293T cells transiently overexpressing caspase-6 (Homo sapiens, UniProt P05165).
T1 sequence (P05165 53-728): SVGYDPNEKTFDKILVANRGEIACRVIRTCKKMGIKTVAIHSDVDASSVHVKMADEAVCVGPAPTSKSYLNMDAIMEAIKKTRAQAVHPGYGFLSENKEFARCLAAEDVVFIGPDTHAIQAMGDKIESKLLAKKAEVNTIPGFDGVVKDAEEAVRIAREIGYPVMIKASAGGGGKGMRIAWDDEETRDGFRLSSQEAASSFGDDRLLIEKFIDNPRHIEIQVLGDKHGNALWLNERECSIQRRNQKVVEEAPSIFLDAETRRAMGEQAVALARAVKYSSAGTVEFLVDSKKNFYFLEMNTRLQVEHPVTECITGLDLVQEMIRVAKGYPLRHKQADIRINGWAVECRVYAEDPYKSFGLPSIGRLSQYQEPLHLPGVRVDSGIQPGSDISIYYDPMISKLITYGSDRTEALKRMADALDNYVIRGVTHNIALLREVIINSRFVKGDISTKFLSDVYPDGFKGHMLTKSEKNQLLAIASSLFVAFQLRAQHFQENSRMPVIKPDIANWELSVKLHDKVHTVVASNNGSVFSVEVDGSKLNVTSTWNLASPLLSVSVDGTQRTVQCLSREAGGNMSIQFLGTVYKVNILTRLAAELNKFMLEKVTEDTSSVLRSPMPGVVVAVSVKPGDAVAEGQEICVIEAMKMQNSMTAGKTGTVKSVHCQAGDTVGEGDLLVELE

In assay [3] the target is proteins of HEK293T cells transiently overexpressing caspase-6 (Homo sapiens, UniProt P07900). The following applies: exp_ref Probe; protein HSP90AA1 (P07900); analysis C6.
Assay [4] deals with proteins of HEK293T cells transiently overexpressing caspase-6 (Homo sapiens, UniProt Q13200). To be noted: protein PSMD2 (Q13200).
Chain of proteins of HEK293T cells transiently overexpressing caspase-6 (Homo sapiens, UniProt Q13200) (Q13200 whole entry): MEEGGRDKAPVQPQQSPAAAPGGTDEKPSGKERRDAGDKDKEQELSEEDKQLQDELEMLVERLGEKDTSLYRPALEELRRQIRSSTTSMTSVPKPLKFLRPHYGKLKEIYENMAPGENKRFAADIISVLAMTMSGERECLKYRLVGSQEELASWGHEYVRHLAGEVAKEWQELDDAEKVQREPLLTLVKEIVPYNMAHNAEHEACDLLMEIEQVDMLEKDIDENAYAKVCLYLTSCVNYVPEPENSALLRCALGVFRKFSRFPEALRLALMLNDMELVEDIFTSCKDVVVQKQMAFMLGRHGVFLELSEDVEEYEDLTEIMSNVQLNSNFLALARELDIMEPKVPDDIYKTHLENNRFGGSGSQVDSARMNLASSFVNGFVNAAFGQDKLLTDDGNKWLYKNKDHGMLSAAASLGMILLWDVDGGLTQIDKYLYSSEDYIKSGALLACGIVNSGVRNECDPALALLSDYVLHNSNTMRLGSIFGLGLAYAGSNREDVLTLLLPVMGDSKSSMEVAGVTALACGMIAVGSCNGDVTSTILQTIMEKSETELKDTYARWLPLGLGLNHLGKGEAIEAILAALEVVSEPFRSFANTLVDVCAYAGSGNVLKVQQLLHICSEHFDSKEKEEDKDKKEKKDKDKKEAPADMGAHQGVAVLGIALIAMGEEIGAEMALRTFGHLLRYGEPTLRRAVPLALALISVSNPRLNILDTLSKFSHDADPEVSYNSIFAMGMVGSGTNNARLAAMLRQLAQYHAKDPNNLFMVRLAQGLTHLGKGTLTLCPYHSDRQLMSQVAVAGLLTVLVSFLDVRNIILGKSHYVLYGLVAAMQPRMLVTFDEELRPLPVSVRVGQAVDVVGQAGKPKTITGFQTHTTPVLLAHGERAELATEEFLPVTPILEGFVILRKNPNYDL
Assay [5] addresses proteins of HEK293T cells transiently overexpressing caspase-6 (Homo sapiens, UniProt P31943). To be noted: exp_ref Probe; protein HNRNPH1 (P31943); analysis C6.
For assay [6], the target named is proteins of HEK293T cells transiently overexpressing caspase-6 (Homo sapiens, UniProt Q16881). The following applies: exp_ref Probe; protein TXNRD1 (Q16881); analysis C6.
Chain of proteins of HEK293T cells transiently overexpressing caspase-6 (Homo sapiens, UniProt Q16881) (Q16881 whole entry): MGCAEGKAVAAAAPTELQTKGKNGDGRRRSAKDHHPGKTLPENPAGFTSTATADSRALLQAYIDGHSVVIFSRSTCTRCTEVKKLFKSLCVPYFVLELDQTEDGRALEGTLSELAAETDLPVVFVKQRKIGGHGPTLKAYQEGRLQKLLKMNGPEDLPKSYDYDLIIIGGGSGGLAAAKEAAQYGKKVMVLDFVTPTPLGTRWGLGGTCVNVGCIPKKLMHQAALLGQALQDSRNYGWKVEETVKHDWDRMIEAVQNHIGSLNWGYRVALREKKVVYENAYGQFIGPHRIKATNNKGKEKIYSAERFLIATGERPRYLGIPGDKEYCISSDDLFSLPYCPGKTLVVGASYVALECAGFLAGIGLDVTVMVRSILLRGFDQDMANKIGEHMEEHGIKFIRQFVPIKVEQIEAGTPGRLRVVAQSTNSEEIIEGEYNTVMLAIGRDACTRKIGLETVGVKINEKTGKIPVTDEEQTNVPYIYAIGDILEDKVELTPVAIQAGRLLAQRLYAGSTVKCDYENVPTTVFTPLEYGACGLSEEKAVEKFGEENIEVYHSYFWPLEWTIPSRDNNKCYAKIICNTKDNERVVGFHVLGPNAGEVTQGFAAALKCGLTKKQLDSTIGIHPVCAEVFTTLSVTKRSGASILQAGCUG
For assay [7], the target named is T2, proteins of HEK293T cells transiently overexpressing caspase-6 (Homo sapiens, UniProt P26583).
T2 sequence (P26583 1-209): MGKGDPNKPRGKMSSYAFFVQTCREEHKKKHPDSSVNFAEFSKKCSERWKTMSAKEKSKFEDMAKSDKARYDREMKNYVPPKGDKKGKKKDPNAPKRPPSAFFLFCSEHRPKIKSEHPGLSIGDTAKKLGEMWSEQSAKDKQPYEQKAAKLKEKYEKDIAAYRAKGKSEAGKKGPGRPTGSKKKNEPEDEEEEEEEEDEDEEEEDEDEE

Assay [8] addresses T3, proteins of HEK293T cells transiently overexpressing caspase-6 (Homo sapiens, UniProt O43175).
T3 sequence (O43175 1-533): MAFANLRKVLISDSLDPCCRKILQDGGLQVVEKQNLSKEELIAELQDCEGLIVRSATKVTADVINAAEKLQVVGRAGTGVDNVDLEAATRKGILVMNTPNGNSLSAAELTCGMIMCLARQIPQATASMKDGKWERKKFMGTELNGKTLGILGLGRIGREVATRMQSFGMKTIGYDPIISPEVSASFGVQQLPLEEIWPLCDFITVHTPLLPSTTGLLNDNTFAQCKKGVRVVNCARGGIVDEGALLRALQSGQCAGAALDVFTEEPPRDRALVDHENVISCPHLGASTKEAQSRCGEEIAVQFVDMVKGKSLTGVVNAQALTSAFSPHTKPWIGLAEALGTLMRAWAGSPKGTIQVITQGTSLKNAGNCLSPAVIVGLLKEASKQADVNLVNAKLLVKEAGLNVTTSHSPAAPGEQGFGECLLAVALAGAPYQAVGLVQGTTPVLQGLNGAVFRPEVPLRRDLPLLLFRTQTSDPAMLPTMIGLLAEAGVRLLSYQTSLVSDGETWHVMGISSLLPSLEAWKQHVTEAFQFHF
To be noted: protein PHGDH (O43175).

Assay [9] deals with proteins of HEK293T cells transiently overexpressing caspase-6 (Homo sapiens, UniProt P62244). The following applies: exp_ref Probe; protein RPS15A (P62244); analysis C6.
For assay [10], the target named is proteins of HEK293T cells transiently overexpressing caspase-6 (Homo sapiens, UniProt P09651). To be noted: protein HNRNPA1 (P09651).
Chain of proteins of HEK293T cells transiently overexpressing caspase-6 (Homo sapiens, UniProt P09651) (P09651 whole entry): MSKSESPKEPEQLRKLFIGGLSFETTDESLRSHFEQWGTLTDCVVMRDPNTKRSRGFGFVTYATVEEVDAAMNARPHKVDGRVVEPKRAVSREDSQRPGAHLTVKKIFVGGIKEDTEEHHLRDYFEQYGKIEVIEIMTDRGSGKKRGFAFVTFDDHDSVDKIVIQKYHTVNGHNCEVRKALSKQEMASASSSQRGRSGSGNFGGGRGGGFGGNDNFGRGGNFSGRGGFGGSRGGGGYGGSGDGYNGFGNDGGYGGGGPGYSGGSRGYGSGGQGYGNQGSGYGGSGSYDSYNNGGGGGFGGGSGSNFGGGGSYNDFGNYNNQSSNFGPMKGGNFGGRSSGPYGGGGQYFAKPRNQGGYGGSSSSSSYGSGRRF
In assay [11] the target is proteins of HEK293T cells transiently overexpressing caspase-6 (Homo sapiens, UniProt P60174). To be noted: exp_ref Probe; protein TPI1 (P60174); analysis C6.
Chain of proteins of HEK293T cells transiently overexpressing caspase-6 (Homo sapiens, UniProt P60174) (P60174 whole entry): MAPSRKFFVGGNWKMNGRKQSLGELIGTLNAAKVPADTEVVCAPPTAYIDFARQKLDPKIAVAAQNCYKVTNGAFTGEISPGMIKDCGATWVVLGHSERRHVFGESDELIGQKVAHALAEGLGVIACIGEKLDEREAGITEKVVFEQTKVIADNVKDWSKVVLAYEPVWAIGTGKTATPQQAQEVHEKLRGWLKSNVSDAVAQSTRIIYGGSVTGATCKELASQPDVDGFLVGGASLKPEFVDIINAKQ
The target of assay [12] is proteins of HEK293T cells transiently overexpressing caspase-6 (Homo sapiens, UniProt P49189). To be noted: exp_ref Probe; protein ALDH9A1 (P49189); analysis C6.
Chain of proteins of HEK293T cells transiently overexpressing caspase-6 (Homo sapiens, UniProt P49189) (P49189 whole entry): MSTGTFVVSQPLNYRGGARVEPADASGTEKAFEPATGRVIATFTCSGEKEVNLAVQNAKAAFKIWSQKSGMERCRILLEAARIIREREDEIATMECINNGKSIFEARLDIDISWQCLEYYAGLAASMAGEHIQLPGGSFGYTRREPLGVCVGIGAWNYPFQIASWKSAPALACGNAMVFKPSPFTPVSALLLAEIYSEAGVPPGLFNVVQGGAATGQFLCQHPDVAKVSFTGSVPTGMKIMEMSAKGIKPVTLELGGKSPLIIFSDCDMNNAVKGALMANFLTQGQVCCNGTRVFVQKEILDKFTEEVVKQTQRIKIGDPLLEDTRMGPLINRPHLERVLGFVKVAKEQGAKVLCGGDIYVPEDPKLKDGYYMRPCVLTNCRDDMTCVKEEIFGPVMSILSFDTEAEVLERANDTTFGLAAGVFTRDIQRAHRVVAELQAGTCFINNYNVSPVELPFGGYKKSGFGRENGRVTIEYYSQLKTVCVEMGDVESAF
Assay [13] concerns the target proteins of HEK293T cells transiently overexpressing caspase-6 (Homo sapiens, UniProt P52272). The following applies: exp_ref Probe; protein HNRNPM (P52272); analysis C6.

The structures appear in SMILES notation.

Chain of proteins of HEK293T cells transiently overexpressing caspase-6 (Homo sapiens, UniProt P52272) (P52272 whole entry): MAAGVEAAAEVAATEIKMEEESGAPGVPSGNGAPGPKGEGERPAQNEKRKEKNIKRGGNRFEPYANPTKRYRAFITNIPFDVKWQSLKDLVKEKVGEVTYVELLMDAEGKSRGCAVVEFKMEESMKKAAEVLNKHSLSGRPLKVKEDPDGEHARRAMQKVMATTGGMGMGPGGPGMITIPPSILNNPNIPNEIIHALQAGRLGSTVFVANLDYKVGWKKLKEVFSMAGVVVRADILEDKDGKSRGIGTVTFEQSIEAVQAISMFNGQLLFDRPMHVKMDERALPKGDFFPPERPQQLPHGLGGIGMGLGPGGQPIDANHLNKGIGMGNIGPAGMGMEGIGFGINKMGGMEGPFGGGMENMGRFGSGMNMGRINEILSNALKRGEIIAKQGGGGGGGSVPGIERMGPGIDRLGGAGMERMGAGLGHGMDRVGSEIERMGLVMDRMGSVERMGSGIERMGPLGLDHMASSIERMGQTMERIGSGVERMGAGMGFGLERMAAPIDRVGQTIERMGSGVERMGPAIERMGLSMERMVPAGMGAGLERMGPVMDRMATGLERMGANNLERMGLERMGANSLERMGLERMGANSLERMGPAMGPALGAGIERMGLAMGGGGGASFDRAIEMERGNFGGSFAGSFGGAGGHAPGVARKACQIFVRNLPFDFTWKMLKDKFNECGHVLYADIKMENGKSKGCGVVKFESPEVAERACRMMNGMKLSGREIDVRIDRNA
Chain of proteins of HEK293T cells transiently overexpressing caspase-6 (Homo sapiens, UniProt P31943) (P31943 whole entry): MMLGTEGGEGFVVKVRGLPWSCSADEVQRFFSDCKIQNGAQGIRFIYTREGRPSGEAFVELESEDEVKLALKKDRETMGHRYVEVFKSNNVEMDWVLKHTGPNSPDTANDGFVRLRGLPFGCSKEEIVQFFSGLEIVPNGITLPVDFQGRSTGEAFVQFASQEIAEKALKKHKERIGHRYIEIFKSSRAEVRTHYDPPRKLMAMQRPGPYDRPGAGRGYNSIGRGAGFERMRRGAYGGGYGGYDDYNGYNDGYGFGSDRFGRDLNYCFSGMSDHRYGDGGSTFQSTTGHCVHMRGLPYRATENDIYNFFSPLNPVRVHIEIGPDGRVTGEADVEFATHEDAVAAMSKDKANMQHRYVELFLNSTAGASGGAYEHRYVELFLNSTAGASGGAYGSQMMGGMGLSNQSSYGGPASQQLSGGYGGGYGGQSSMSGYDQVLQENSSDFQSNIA

Take `C#CCOc1ccc([C@@H]2C[C@@H](C(=O)Nc3ccc(OC(F)(F)F)cc3)CN(S(=O)(=O)C=C)C2)cc1` (relative stereo) [13-t]: the enrich.exp.med is listed as -0.3639 in assay [1]; -2.194 in [2] (Probe, protein PCCA P05165); 0.7182 in assay [3]; 1.027 in [4] (exp_ref Probe, analysis C6); -0.1466 in [5]; -0.009915 in assay [6]. Further, the enrich.exp.med in [7] (Probe, protein HMGB2 P26583) was -1.024; in assay [8] (exp_ref Probe, analysis C6), 1.1798; in assay [9], 0.1255; in assay [10] (exp_ref Probe, analysis C6), 0.3216; in assay [11] it was 0.1365; in assay [12] it was 0.2139. This compound also registered an enrich.exp.med in assay [13] of 0.2991. Also, the enrich.exp.med.lin in assay [2] (protein PCCA (P05165)) is given as 0.2185; in [4] it was 2.037; in assay [7] (protein HMGB2 (P26583)), 0.4916; in [8], 2.265; in [10], 1.2497. In addition, the enrich.exp.med.log2 is -2.194 in [2] (protein PCCA (P05165)); 1.027 in assay [4]; -1.024 in assay [7] (protein HMGB2 (P26583)); 1.1798 in assay [8]; 0.3216 in assay [10].
